Data published in US4221919A, “Antiinflammatory substituted phenylacetic acids” (SPOFA, United Pharmaceutical Works, priority 1974, dated 1980).
Where two headings read alike, the source gives them in different places.

Legend:
[1] = test system: kaolin-induced edema of rat hind limb; assay: kaolin-induced edema of rat hind limb (antiinflammatory activity, gavage); format: in vivo, rat (Wistar strain, Konarovice breed, female); settings: po, 1 h, by gavage, once, one hour before kaolin injection, vs untreated control group, footnotes mark + statistically significant, n not statistically significant
Experimental: (§1) As experimental models of inflammation, serving for testing the antiinflammatory activity, there were used the method of kaolin-induced edema of rat hind limb (Hillebrecht J.: Arzneim-Forsch. 9, p. 625, 1959). Kaolin edema of rat hind limb was induced by subplantar injection of 10% kaolin suspension dosed 0.1 ml per animal. The substances tested were administered once, one hour before the injection of kaolin, by gavage with the aid of a metallic gastric sound in the form of aqueous suspension with gum acacia added, in volumes of 1 ml/100 g body weight, equivalent to doses of 25 and 100 mg/kg. The edema of the right hind limb was measured volumetrically on a Volumometer Ugo Basile at hours 1; 1.5; 3; 4.5 and 6 after injection of kaolin. Statistical evaluation was always made in comparison with an untreated control group, and the efficacy of each compound was expressed in percent inhibition of inflammation. Experimental animals: female rats, Wistar strain, Konarovice breed, weighing 130-150 g, experimental groups of 6 animals each. Pelleted diet and drinking water were served ad libitum. This phase of limb edema induced by injection of kaolin suspension represents an acute phase of inflammatory reaction. In addition, orientative tests for oral acute toxicity were carried out with the compounds tested in female mice, S strain, Konarovice breed, weighing 16-20 g. Each compound was administered once by gavage, dosed 1 g/kg, in the form of aqueous suspensions with gum acacia added. Experimental groups of 5 animals each were employed. The deaths were checked for 1 week after administration.

[2] = orientative test for oral acute toxicity in female mice; settings: mouse, in vivo
Experimental: as §1

[3] = oral (gavage), single dose 1 g/kg, deaths checked for 1 week, read-out: LD50 oral mice

Compound	inhibition in vivo at 25 mg/kg [1]	LD50 at 168 h ([2]; po)	LD50 at 168 h [2, 3]
CC(C(=O)O)c1ccc(OCc2ccc(Cl)cc2)c(Cl)c1 (stereo not drawn) [α-[3-Chloro-4-(4'-chlorobenzyloxy)-phenyl] propionic acid, reference compound]	25%	> 1000 mg/kg	–
CC(C)Oc1ccc(COc2ccc(CC(=O)O)cc2Cl)cc1 [3-chloro-4-(4'-isopropoxybenzyloxy) phenylacetic acid]	–	–	< 1000 mg/kg
CC(C(=O)O)c1ccc(OCc2ccccc2)c(Cl)c1 (stereo not drawn) [α-(3-Chloro-4-benzyloxyphenyl)-propionic acid, reference compound]	14%	–	1000 mg/kg
COc1ccc(COc2ccc(C(C)C(=O)O)cc2Cl)cc1Cl (stereo not drawn) [α-[3-Chloro-4-(3'-chloro-4'-methoxybenzyloxy)phenyl] propionic acid, reference compound]	–	–	< 1000 mg/kg
O=C(O)Cc1ccc(OCc2ccc(Cl)cc2)c(Cl)c1 [3-Chloro-4-(4'-chlorobenzyloxy) phenylacetic acid]	28%	–	> 1000 mg/kg
CC(C)Oc1ccc(COc2ccc(C(C)C(=O)O)cc2Cl)cc1 (stereo not drawn) [α-[3-Chloro-4-(4'-isopropoxybenzyloxy)phenyl] propionic acid, reference compound]	–	–	< 1000 mg/kg
O=C(O)Cc1ccc(OCc2ccccc2)c(Cl)c1 [3-Chloro-4-benzyloxyphenylacetic acid, 3-chloro-4-benzyloxyphenylacetic acid]	39%	–	> 1000 mg/kg
COc1ccc(COc2ccc(CC(=O)O)cc2Cl)cc1Cl [3-chloro-4-(3'-chloro-4'-methoxybenzyloxy) phenylacetic acid]	17%	–	> 1000 mg/kg
